Experimental data: US20120190748A1, “GREATER UTILITY WITH THYROID HORMONE” (priority 2009, published 2012)
Blank lines part the entries; values can stand above or below the compound they belong to.

Tests used:
[1] = system: Thyroid Binding Globulin, Transthyretin and Albumin; conditions: cited from earlier work; for bound within the blood stream (protein binding): bound by Thyroid Binding Globulin, Transthyretin and Albumin
[2] = T3 compared with T4; cited from earlier work
[3] = Case report: oral thyroid hormone regimens in one subject (Sam) after radioactive iodine ablation for Grave's disease; assay type: in vivo, human
Procedure: The subject (Sam), of this case report, was treated with radioactive iodine ablation with a relatively low dose. Prior to diagnosis of Grave's disease, Sam was never known to have free T4 levels above median, and had always maintained the same weight +/−3 lbs beyond the age of 18.
Over the next several years, attempting to ameliorate symptoms, Sam attempted to treat the hypothyroid state with the following means: 0.175 mg of T4 OD, resulting in palpitations, anxiety, stiffness, chest tightness, insomnia, sclerotic skin changes, sweating and heat intolerance within 6 months of initiating therapy. The severity of the symptoms required Sam to return to return to 0.15 mg OD of T4 within 1 week of experiencing the symptoms—remaining at that dose for 6 weeks. […] This was followed by an attempt to treat with: 0.125 mg of T4 with 0.005 mg of T3 OD, resulting in palpitations, anxiety, stiffness, chest tightness, insomnia, sclerotic skin changes, sweating and heat intolerance within 3 weeks of initiating therapy. The severity of the symptoms required Sam to return to 0.15 mg OD of T4 within 2 days of experiencing these symptoms—remaining at that dose for 6 weeks with resolution of the adrenergic symptoms. This was followed by an attempt to treat with: 0.035 mg of T3 OD, resulting in palpitations, anxiety, stiffness, chest tightness, insomnia, sclerotic skin changes, sweating and heat intolerance within 1 week of initiating therapy. The severity of the symptoms required Sam to return to 0.15 mg OD of T4 within 1 day of experiencing these symptoms—remaining at that dose for 6 weeks with resolution of the adrenergic symptoms. This was followed by an attempt to treat with: 0.005 mg of T3 q3:25hours, resulting in palpitations, anxiety, stiffness, chest tightness, insomnia, sclerotic skin changes, sweating and heat intolerance within 1 week of initiating therapy. The severity of the symptoms required Sam to return to 0.15 mg OD of T4 within 1 day of experiencing symptoms—remaining at that dose for many years, with continued nasal congestion and dysphoria.
Then the symptoms all stopped. […] Sam continued this dose for several months. […] Dysphoria and nasal congestion were improved over that which was present with once daily dosing, but still remained present, so Sam attempted to treat with the following: 0.075 mg of T4 q6hours, resulting in dysphoria, nasal congestion, and mild to moderate palpitations, anxiety, stiffness, chest tightness, insomnia, sweating and heat intolerance for 2 days, then the symptoms stopped, until Sam changed treatment to: 0.05 mg of T4 q4hours, resulting in dysphoria, nasal congestion, and mild palpitations, anxiety, stiffness, chest tightness, insomnia, sweating and heat intolerance for 2 days, then the symptoms stopped, with an even greater sense of well being than had been experienced on previous treatment regimes, but Sam further increased the dose to: 0.05 mg of T4 q3hrous, resulting in dysphoria, nasal congestion, and mild palpitations, anxiety, stiffness, chest tightness, insomnia, sclerotic skin changes, sweating and heat intolerance for 3 weeks, then the symptoms stopped. Sam remained on this dose for a period of approximately 3 years. […] Weight loss of 40 lbs (with a resulting body fat of 26% by electrical impedance, and lean mass of 100 lbs.) over the first 15 months occurred followed by weight gain of 15 lbs over the next 15 months (with a resulting body fat of 28% by electrical impedance, and lean mass of 108 lbs.). A reduced incidence and duration of common colds was noted, while at steady state over the 3 year period. On one occasion, when the expiry date of T4 administered was several months nearer to the time of administration, than that of T4 typically administered by Sam, within one day, onset of dysphoria, nasal congestion, palpitations, insomnia, anorexia, night sweats, cold sweats, cold intolerance, weakness and the sensation of weight loss occurred; the symptoms resolved within three days. […]

[4] = extended due to protein binding; human body; cited from earlier work
[5] = 0.05 mg of T4 q3hrous, after the first 15 months
[6] = 0.05 mg of T4 q3hrous, after the next 15 months
[7] = 0.05 mg of T4 q3hrous, at 2.7 years
[8] = dose reduced to 0.05 mg of T4 q4hours, within the first 2 weeks

SMILES: N[C@@H](Cc1cc(I)c(Oc2ccc(O)c(I)c2)c(I)c1)C(=O)O [T3, 3,5,3′ triiodo-L-thyronine]
bound within the blood stream (protein binding) [1]: 99.6%
stability (iodine atoms removed by hydrolysis) [2]: more unstable
time to palpitations, anxiety, stiffness, chest tightness, insomnia, sclerotic skin changes, sweating and heat intolerance after initiating therapy ([3]; 0.005 mg of T3 q3:25hours): ≤ 1 week
time to palpitations, anxiety, stiffness, chest tightness, insomnia, sclerotic skin changes, sweating and heat intolerance after initiating therapy ([3]; 0.035 mg of T3 OD): ≤ 1 week
biological half-life [4]: approximately 1 days

duration of dysphoria, nasal congestion and mild adrenergic symptoms ([3]; 0.05 mg of T4 q3hrous): 3 weeks
Free T4 concentration, gradual decrease ([3]; 0.05 mg of T4 q3hrous, approximately 3 years, remained far above normal): 15%
blood glucose [3, 7]: normal blood glucose
serum calcium [3, 7]: slightly above the upper limit of normal
duration of dysphoria, nasal congestion and mild adrenergic symptoms ([3]; 0.05 mg of T4 q4hours (first time)): 2 days
duration of dysphoria, nasal congestion and mild to moderate adrenergic symptoms ([3]; 0.075 mg of T4 q6hours): 2 days
duration of dysphoria, nasal congestion and mild to moderate adrenergic symptoms ([3]; 0.088 mg of T4 q8hours): three weeks
T4 concentrations ([3]; 0.088 mg of T4 q8hours, continued for several months): higher than normal range
duration of dysphoria, nasal congestion and mild to moderate adrenergic symptoms ([3]; 0.1 mg of T4 q8hours): three weeks
change in weight (mean, persistent) ([3]; 0.125 mg OD of T4, following several months of treatment): 5 lbs
free T4 ([3]; 0.175 mg of T4 OD, in the 6th month): free T4 rose
free T4 levels ([3]; T4 titrated to doses ranging from 0.1 mg OD to 0.25 mg OD): 28 pmol/L
free T4 rise [3, 8]: 22%
SMILES: N[C@@H](Cc1cc(I)c(Oc2cc(I)c(O)c(I)c2)c(I)c1)C(=O)O [T4, 3,5,3′,5′ tetraiodo-L-thyronine]
bound more tightly than T3 ([1]; T4 relative to T3): roughly 10 times
bound within the blood stream (protein binding) [1]: 99.96%
body fat by electrical impedance [3, 5]: 26%
lean mass [3, 5]: 100 lbs
body fat by electrical impedance [3, 6]: 28%
lean mass [3, 6]: 108 lbs
EKG heart rate (normal sinus rhythm) [3, 7]: 71 beats per minute
lipid profile [3, 7]: exceptional lipid profile
weight loss ([3]; 0.05 mg of T4 q3hrous, over the first 15 months): 40 lbs
weight gain ([3]; 0.05 mg of T4 q3hrous, over the next 15 months): 15 lbs
weight loss ([3]; 0.075 mg of T4 q8hours): 2-3 pounds
effect on previous symptoms (weight gain, body fat increase, insomnia, anorexia, night sweats, cold intolerance, weakness etc.) ([3]; 0.088 mg of T4 q8hours): resolution of the previous symptoms within one week
weight gain ([3]; 0.1 mg of T4 q8hours): 2-3 pounds
time to palpitations, anxiety, stiffness, chest tightness, insomnia, sclerotic skin changes, sweating and heat intolerance after initiating therapy ([3]; 0.175 mg of T4 OD): ≤ 6 months
duration of dysphoria, nasal congestion, palpitations, insomnia, anorexia, night sweats, cold intolerance, weakness etc. ([3]; dose reduced to 0.05 mg of T4 q4hours): 8 weeks
weight loss [3, 8]: 2-3 lbs
